tested on: not given; assay: not given; conditions: unprotected form; Mottram et al. 2006; cited from earlier work

Structure (SMILES) | pKa
O=C(O)c1ccccc1-c1c2cc(F)c(=O)cc-2oc2cc(O)c(F)cc12 [Oregon Green, Oregon green] | 4.8
O=C1OC2(c3ccc(O)cc3Oc3cc(O)ccc32)c2ccccc21 [fluorescein] | 6.5

tested on: HeLa cells; assay: sulforhodamine B (SRB) antiproliferative assay; type: cell-based, human; conditions: Homo sapiens, HeLa; Table 5; read-out: GI50 in HeLa
Source text: HCC1806 (CRL-2335) and HCC1937 (CRL-2336) human triple-negative breast cancer cells, HeLa (CCL-2) cervical cancer cells and SK-OV-3 (HTB-77) ovarian cancer cells were obtained from ATCC (Manassas, Va.) and validated by STR profiling (Genetica). SK-OV-3 cells stably overexpressing Pgp by adenoviral-mediated expression of MDR1 were obtained from Dr. Susan Kane and subcloned by limiting dilution to isolate the single-cell clones utilized in these studies as SK-OV-3-MDR-1-6/6 (Risinger, A. L. et al. (2008) Cancer Res. 68, 8881-8888). A single-cell clone from transfection of HeLa cells with βIII-tubulin, designated wild type βIII, was constructed and obtained from Dr. Richard Luduena (Risinger, A. L. et al. (2008) Cancer Res. 68, 8881-8888). HCC1806 and HCC1937 cells were cultured in RPMI 1640 media (Corning) with 10% FBS (Cellgro) and 50 μg/mL gentamicin (Gibco). HeLa, […] expressing HeLa, SK-OV-3 and SK-OV-3/MDR-1-6/6 cells were grown in BME media with Earle's salts (Gibco) with 10% FBS, 1× final 1% GlutaMax™ Supplement (Gibco), and […] gentamicin. The use of HeLa cells allows for the direct comparison of the in vitro potency as compared to other compounds of this class, which have been predominantly reported in this line and compound potencies are consistent among three additional cancer cell lines. HeLa cells were also used for ectopic expression of tubulin mutants due to the high degree of transfectability of this cell line. Cells were tested for mycoplasma contamination using the Mycoplasma Detection Kit-Quick Test (Cat: B39032, Lot: JW004).
The sulforhodamine B (SRB) assay was utilized to examine the antiproliferative and cytotoxic effects of the compounds (Skehan, P. et al. (1990) J. Natl. Cancer Inst. 82, 1107-1112; Vichai and Kirtikara (2006) Nat. Protoc. 1, 1112-1116). Approximately 2,000 cells per well (for SK-OV-3, HeLa and βIII-tubulin expressing HeLa) or 4,000 cells per well (for HCC1806 and HCC1937) were seeded in 96-well plates. For each biological replicate, cells were treated in triplicate with each concentration of compound or vehicle control for 48 h in a final volume of 200 μL. The plates were fixed with 10% trichloroacetic acid for protein precipitation of adherent cells and then washed with distilled water. 100 μL of SRB dye, which binds protein stoichiometrically, was added and then unbound dye removed with 1% acetic acid followed by the addition of 200 μL 10 mM Tris to solubilize the dye, which was quantified by absorbance at 560 nm. The percent growth of treated cells relative to the density at the time of drug addiction was calculated as compared to vehicle treated cells.

Structure (SMILES) | GI50 [µM]
CC(=O)O[C@H]1[C@H]2[C@@H]([C@@H](O)[C@H](NC(=O)CCCN=[N+]=[N-])[C@H]3C[C@@H]4O[C@@H]4[C@H](OC(C)=O)[C@]23C)[C@@H]2[C@@H](O)[C@@H]3[C@H]([C@H](C)[C@H]4O[C@]45OC(=O)[C@@](C)(O)[C@]35C)[C@@]2(C)[C@H]1OC(C)=O [152D] | 0.12
CC(=O)O[C@H]1[C@H]2[C@@H]([C@@H](O)[C@@H](NC(=O)CCCN=[N+]=[N-])[C@H]3C[C@@H]4O[C@@H]4[C@H](OC(C)=O)[C@]23C)[C@@H]2[C@@H](O)[C@@H]3[C@H]([C@H](C)[C@H]4O[C@]45OC(=O)[C@@](C)(O)[C@]35C)[C@@]2(C)[C@H]1OC(C)=O [152E] | 0.09
CC(=O)O[C@H]1[C@H]2[C@@H]([C@@H](O)[C@@H](NC(=O)CCCn3cc(CNC(=O)c4ccc(-c5c6cc(F)c(=O)cc-6oc6cc(O)c(F)cc56)c(C(=O)O)c4)nn3)[C@H]3C[C@@H]4O[C@@H]4[C@H](OC(C)=O)[C@]23C)[C@@H]2[C@@H](O)[C@@H]3[C@H]([C@H](C)[C@H]4O[C@]45OC(=O)[C@@](C)(O)[C@]35C)[C@@]2(C)[C@H]1OC(C)=O [154B] | > 10
CC(=O)O[C@H]1[C@H]2[C@@H]([C@@H](O)[C@@H](NC(=O)CCCn3cc(CNC(=O)CCCC[C@@H]4SC[C@@H]5NC(=O)N[C@@H]54)nn3)[C@H]3C[C@@H]4O[C@@H]4[C@H](OC(C)=O)[C@]23C)[C@@H]2[C@@H](O)[C@@H]3[C@H]([C@H](C)[C@H]4O[C@]45OC(=O)[C@@](C)(O)[C@]35C)[C@@]2(C)[C@H]1OC(C)=O [154C] | > 10
CC(=O)Oc1cc2c(cc1F)C1(OC(=O)c3cc(C(=O)NCc4cn(CCCC(=O)N[C@@H]5[C@H](O)[C@H]6[C@@H]7[C@@H](O)[C@@H]8[C@H]([C@H](C)[C@H]9O[C@]9%10OC(=O)[C@@](C)(O)[C@]8%10C)[C@@]7(C)[C@@H](OC(C)=O)[C@@H](OC(C)=O)[C@@H]6[C@]6(C)[C@@H]5C[C@@H]5O[C@@H]5[C@@H]6OC(C)=O)nn4)ccc31)c1cc(F)c(OC(C)=O)cc1O2 [154J] | > 10
CC(=O)O[C@H]1[C@H]2[C@@H]([C@@H](O)[C@@H](NC(=O)CCCn3cc(COc4cc5c(cc4F)C4(OC(=O)c6ccccc64)c4cc(F)c(O)cc4O5)nn3)[C@H]3C[C@@H]4O[C@@H]4[C@H](OC(C)=O)[C@]23C)[C@@H]2[C@@H](O)[C@@H]3[C@H]([C@H](C)[C@H]4O[C@]45OC(=O)[C@@](C)(O)[C@]35C)[C@@]2(C)[C@H]1OC(C)=O (some centres unmarked) [155F] | 3.7
CC(=O)O[C@H]1[C@H]2[C@@H]([C@@H](O)[C@@H](NC(=O)CCCn3cc(COc4ccc5c(c4)Oc4cc(O)ccc4C54OC(=O)c5ccccc54)nn3)[C@H]3C[C@@H]4O[C@@H]4[C@H](OC(C)=O)[C@]23C)[C@@H]2[C@@H](O)[C@@H]3[C@H]([C@H](C)[C@H]4O[C@]45OC(=O)[C@@](C)(O)[C@]35C)[C@@]2(C)[C@H]1OC(C)=O (some centres unmarked) [155G] | 8.4
CC(=O)O[C@H]1[C@H]2[C@@H]([C@@H](O)[C@@H](NC(=O)CCCCCCn3cc(COc4cc5c(cc4F)C4(OC(=O)c6ccccc64)c4cc(F)c(O)cc4O5)nn3)[C@H]3C[C@@H]4O[C@@H]4[C@H](OC(C)=O)[C@]23C)[C@@H]2[C@@H](O)[C@@H]3[C@H]([C@H](C)[C@H]4O[C@]45OC(=O)[C@@](C)(O)[C@]35C)[C@@]2(C)[C@H]1OC(C)=O (some centres unmarked) [158E] | > 10
CC(=O)O[C@H]1[C@H]2[C@@H]([C@@H](O)[C@@H](NC(=O)CCCCCCn3cc(COc4ccc5c(c4)Oc4cc(O)ccc4C54OC(=O)c5ccccc54)nn3)[C@H]3C[C@@H]4O[C@@H]4[C@H](OC(C)=O)[C@]23C)[C@@H]2[C@@H](O)[C@@H]3[C@H]([C@H](C)[C@H]4O[C@]45OC(=O)[C@@](C)(O)[C@]35C)[C@@]2(C)[C@H]1OC(C)=O (some centres unmarked) [158F] | 6
CC(=O)Oc1ccc2c(c1)Oc1cc(OC(C)=O)ccc1C21OC(=O)c2cc(C(=O)NCCC(=O)N[C@@H]3[C@H](O)[C@H]4[C@@H]5[C@@H](O)[C@@H]6[C@H]([C@H](C)[C@H]7O[C@]78OC(=O)[C@@](C)(O)[C@]68C)[C@@]5(C)[C@@H](OC(C)=O)[C@@H](OC(C)=O)[C@@H]4[C@]4(C)[C@@H]3C[C@@H]3O[C@@H]3[C@@H]4OC(C)=O)ccc21 [162C] | 10
CC(=O)O[C@H]1[C@H]2[C@@H]([C@@H](O)[C@@H](NC(=O)CCNC(=O)c3ccc4c(c3)C(=O)OC43c4ccc(OC(=O)C(C)(C)C)cc4Oc4cc(OC(=O)C(C)(C)C)ccc43)[C@H]3C[C@@H]4O[C@@H]4[C@H](OC(C)=O)[C@]23C)[C@@H]2[C@@H](O)[C@@H]3[C@H]([C@H](C)[C@H]4O[C@]45OC(=O)[C@@](C)(O)[C@]35C)[C@@]2(C)[C@H]1OC(C)=O [163D] | 2
CC(=O)Oc1cc2c(cc1F)C1(OC(=O)c3cc(C(=O)NCCC(=O)N[C@@H]4[C@H](O)[C@H]5[C@@H]6[C@@H](O)[C@@H]7[C@H]([C@H](C)[C@H]8O[C@]89OC(=O)[C@@](C)(O)[C@]79C)[C@@]6(C)[C@@H](OC(C)=O)[C@@H](OC(C)=O)[C@@H]5[C@]5(C)[C@@H]4C[C@@H]4O[C@@H]4[C@@H]5OC(C)=O)ccc31)c1cc(F)c(OC(C)=O)cc1O2 [163E] | > 10
CC(=O)O[C@H]1[C@H]2C([C@@H](O)[C@@H](NC(=O)c3ccc4c(c3)C(=O)OC43c4ccc(OC(=O)C(C)(C)C)cc4Oc4cc(OC(=O)C(C)(C)C)ccc43)[C@H]3C[C@@H]4O[C@@H]4[C@H](OC(C)=O)[C@@]32C)[C@@H]2[C@@H](O)[C@@H]3[C@H]([C@H](C)[C@H]4O[C@]45OC(=O)[C@@](C)(O)[C@]35C)[C@@]2(C)[C@H]1OC(C)=O (some centres unmarked) [164B] | 0.031
CC(=O)O[C@H]1[C@H]2[C@@H]([C@@H](O)[C@@H](NC(=O)CNC(=O)c3ccc4c(c3)C(=O)OC43c4ccc(OC(=O)C(C)(C)C)cc4Oc4cc(OC(=O)C(C)(C)C)ccc43)[C@H]3C[C@@H]4O[C@@H]4[C@H](OC(C)=O)[C@]23C)[C@@H]2[C@@H](O)[C@@H]3[C@H]([C@H](C)[C@H]4O[C@]45OC(=O)[C@@](C)(O)[C@]35C)[C@@]2(C)[C@H]1OC(C)=O [164E] | 0.74
CC(=O)O[C@H]1[C@H]2[C@@H]([C@@H](O)[C@@H](NC(=O)CCCn3cc(CCC(=O)NCCCC[C@@H](NC(=O)[C@H](Cc4ccc(O)cc4)NC(=O)[C@H](CO)NC(=O)[C@H](Cc4c[nH]c5ccccc45)NC(=O)[C@H](Cc4c[nH]cn4)NC(=O)[C@@H]4CCC(=O)N4)C(=O)N[C@@H](CC(C)C)C(=O)N[C@@H](CCCNC(=N)N)C(=O)N4CCC[C@H]4C(=O)NCC(N)=O)nn3)[C@H]3C[C@@H]4O[C@@H]4[C@H](OC(C)=O)[C@]23C)[C@@H]2[C@@H](O)[C@@H]3[C@H]([C@H](C)[C@H]4O[C@]45OC(=O)[C@@](C)(O)[C@]35C)[C@@]2(C)[C@H]1OC(C)=O [171B] | 2.6

From patent US20230061432A1, “NEW TECHNOLOGY TO CONJUGATE THE TACCALONOLIDE MICROTUBULE STABILIZERS WITH LINKERS/PAYLOADS” (priority 2019, published 2023)
